Laboratory results taken from US9598398B2, “Heterocyclic compound” (TAKEDA PHARMACEUTICAL COMPANY LIMITED, priority 2013, dated 2017).

What was measured:
human CH24H = target: T1, human CH24H (Homo sapiens, UniProt Q9Y6A2); test: Measurement of CH24H inhibitory activity (24-HC produced from [14C] cholesterol by human CH24H lysate); type: biochemical; settings: test compound 1 μM, [14C] cholesterol 15 μM, 37° C., 5 hr, read-out: Inhibitory Rate in 1 μM (%)
T1 construct: Using Full-Length Mammalian Gene Collection No. 4819975 (Invitrogen) as a template; made in house; host or cells: FreeStyle 293-F cells, transient transfection with pcDNA3.1(+)/hCH24H; crude lysate supernatant
Method: A plasmid DNA for expressing human CH24H in a FreeStyle 293 cell was produced as follows. Using Full-Length Mammalian Gene Collection No. 4819975 (Invitrogen) as a template, and the following two kinds of synthesized DNAs:
PCR was performed to amplify 91-1625 bp region of human CH24H (BCO22539). The obtained fragment was cloned using TOPO TA Cloning Kit (Invitrogen). The obtained fragment was subcloned to pcDNA3.1(+) digested with BamHI and XhoI to give a plasmid DNA for human CH24H expression (pcDNA3.1(+)/hCH24H).
The expression of human CH24H was performed using FreeStyle 293 Expression System (Invitrogen). According to the manual attached to FreeStyle 293 Expression System and using the plasmid DNA for human CH24H expression (pcDNA3.1(+)/hCH24H) constructed in Experimental Example 1, a transient expression using FreeStyle 293-F cell was performed. After transfection, the cells were cultured at 37° C., 8% CO2 with shaking at 125 rpm for 2 days. The cells were collected by centrifugation, and suspended in a suspension buffer (100 mM potassium phosphate (pH 7.4), 0.1 mM EDTA, 1 mM DTT, 20% Glycerol). The suspended product was disrupted by a polytron homogenizer (manufactured by Kinematica), and centrifuged at 9000×g for 10 min, and the supernatant was collected. The collected supernatant was cryopreserved (−80° C.) as a human CH24H lysate standard product.
For the measurement of CH24H inhibitory activity, using the human CH24H lysate prepared in Experimental Example 2, the amount of 24-HC produced from cholesterol by catalytic activity of CH24H was measured in the presence of a test compound, and compared with that measured in the absence of the test compound. That is, a test compound solution at various concentrations was mixed with a reaction buffer (50 mM potassium phosphate containing 0.1% BSA and Complete, EDTA-free, pH 7.4) and human CH24H lysate. Then, [^14C] cholesterol (53 mCi/mmol specific activity, 15 μM) was added, and CH24H reaction was performed at 37° C. for 5 hr. After completion of the reaction, a quenching solution consisting of chloroform/methanol/distilled water (2:2:1 v/v) was added, and the resulting 24-HC was extracted by shaking. The extract was applied to silica gel thin layer chromatography (ethyl acetate:toluene=4:6), and the obtained ^14C-24HC fraction was measured with BAS2500 (Fujifilm Corporation).
The inhibitory rate (%) was calculated from the ratio of radioactivity in the presence of a test compound relative to the radioactivity in the absence of the test compound.

[1] = test system: 24-HC in the brain extract; test: Quantification test of 24-HC in mouse brain after repeated oral administration; type: in vivo; settings: female C57BL/6N mice, brain 24-HC at 16 hours after the third administration, relative to control group as 100%
Method: Animals used were 6-week-old female C57BL/6N mice (3 mice/group). A test compound was suspended in a 0.5% aqueous methylcellulose [133-14255 WAKO] solution (1 mg/mL). The body weight of the mice was measured, and the solution was forcibly administered orally and repeatedly once a day for 3 days. At 16 hours after the third administration, half of the brain was harvested, and the amount of 24-HC was measured.
The wet weight of the brain was measured, and the brain was homogenized with 4-fold amount of saline. This solution was used as a brain extract. The 24-HC in the brain extract was extracted with an acetonitrile solution (98% acetonitrile, 1.98% methanol, 0.02% formic acid), and quantified by HPLC. The average value of 24-HC amount was calculated and the results are shown in relative values with the control group as 100%.

[2] = 30 mg/kg orally once a day for 3 days
[3] = 10 mg/kg orally once a day for 3 days

T1 sequence (Q9Y6A2 whole entry): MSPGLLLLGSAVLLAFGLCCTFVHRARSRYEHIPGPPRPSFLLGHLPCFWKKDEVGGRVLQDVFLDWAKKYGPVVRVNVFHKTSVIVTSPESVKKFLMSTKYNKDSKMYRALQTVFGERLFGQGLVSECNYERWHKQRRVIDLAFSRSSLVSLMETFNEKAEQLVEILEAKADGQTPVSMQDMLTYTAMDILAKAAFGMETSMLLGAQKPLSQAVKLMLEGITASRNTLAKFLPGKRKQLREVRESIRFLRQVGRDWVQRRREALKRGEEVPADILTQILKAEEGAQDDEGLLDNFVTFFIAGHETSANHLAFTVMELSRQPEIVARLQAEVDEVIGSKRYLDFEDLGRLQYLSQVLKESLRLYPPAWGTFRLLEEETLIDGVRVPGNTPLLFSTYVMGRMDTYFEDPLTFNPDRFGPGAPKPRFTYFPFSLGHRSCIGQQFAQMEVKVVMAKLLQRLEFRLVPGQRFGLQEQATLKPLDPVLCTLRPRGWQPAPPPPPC

| Compound | inhibition at 1 µM (human CH24H) [%] | Brain 24-HC level relative to control (%) [1, 2] [%] | Brain 24-HC level relative to control (%) [1, 3] [%] |
| --- | --- | --- | --- |
| COc1ccc(CN2CCN(C(=O)c3cc(C)ccc3-c3ccncc3)CC2)cc1 [Example 3, (4-(4-methoxybenzyl)piperazin-1-yl)(5-methyl-2-(pyridin-4-yl)phenyl)methanone] | 87 | – | – |
| c1ccc(CN2CCC(Oc3cccnc3-c3ccncc3)CC2)cc1 [Example 4, 3-((1-benzylpiperidin-4-yl)oxy)-2,4′-bipyridine] | 86 | – | – |
| Fc1ccc(OC2CCN(Cc3ccccc3)CC2)c(-c2ccncc2)c1 [Example 5, 4-(2-((1-benzylpiperidin-4-yl)oxy)-5-fluorophenyl)pyridine] | 92 | – | – |
| c1ccc(CN2CCC(Oc3ccccc3-c3ccncn3)CC2)cc1 [Example 15, 4-(2-((1-benzylpiperidin-4-yl)oxy)phenyl)pyrimidine] | 94 | – | – |
| Cn1ccnc1CN1CCC(Oc2ccccc2-c2ccncc2)CC1 [Example 16, 4-(2-((1-((1-methyl-1H-imidazol-2-yl)methyl)piperidin-4-yl)oxy)phenyl)pyridine] | 93 | – | – |
| CN(C)C(=O)CN1CCC(Oc2ccccc2-c2ccncc2)CC1 [Example 20, N,N-dimethyl-2-(4-(2-(pyridin-4-yl)phenoxy)piperidin-1-yl)acetamide] | 83 | – | – |
| Cn1cc(CN2CCC(Oc3cccnc3-c3ccncc3)CC2)cn1 [Example 22, 3-((1-((1-methyl-1H-pyrazol-4-yl)methyl)piperidin-4-yl)oxy)-2,4′-bipyridine] | 89 | 77 | – |
| COc1ccc(CN2CCN(S(=O)(=O)c3ccc(F)cc3-c3ccncc3)CC2)cc1 [Example 29, 1-((4-fluoro-2-(pyridin-4-yl)phenyl)sulfonyl)-4-(4-methoxybenzyl)piperazine] | 59 | – | – |
| FC1(F)CN(Cc2ccccc2)CCC1Oc1ccccc1-c1ccncn1 (stereo not shown) [Example 34, 4-(2-((1-benzyl-3,3-difluoropiperidin-4-yl)oxy)phenyl)pyrimidine] | 91 | – | – |
| O=C(CN1CCC(Oc2cccnc2-c2ccncc2)CC1)N1CCOCC1 [Example 38, 2-(4-(2,4′-bipyridin-3-yloxy)piperidin-1-yl)-1-(morpholin-4-yl)ethanone] | 84 | – | – |
| Cn1cc(CN2CCC(Oc3nccnc3-c3ccncc3)CC2)cn1 [Example 40, 2-((1-((1-methyl-1H-pyrazol-4-yl)methyl)piperidin-4-yl)oxy)-3-(pyridin-4-yl)pyrazine] | 88 | – | 84 |
| c1cnc(-c2ccncc2)c(OC2CCN(Cc3cscn3)CC2)c1 [Example 47, 3-((1-(1,3-thiazol-4-ylmethyl)piperidin-4-yl)oxy)-2,4′-bipyridine] | 90 | – | 75 |
| CCN(CC)C(=O)CN1CCC(Oc2cccnc2-c2ccncc2)CC1 [Example 49, 2-(4-(2,4′-bipyridin-3-yloxy)piperidin-1-yl)-N,N-diethylacetamide] | 85 | – | – |
| CN(C)C(=O)CN1CCC(Oc2nccnc2-c2ccncc2)C(F)(F)C1 (stereo not shown) [Example 54, 2-(3,3-difluoro-4-((3-(pyridin-4-yl)pyrazin-2-yl)oxy)piperidin-1-yl)-N,N-dimethylacetamide] | 79 | – | 73 |
| O=C1CN(Cc2ccc(F)cc2)CCN1Cc1cccnc1-c1ccncc1 [Example 55, 1-(2,4′-bipyridin-3-ylmethyl)-4-(4-fluorobenzyl)piperazin-2-one] | 53 | – | – |
| c1ccc(CN2CCC(Oc3cccnc3-c3ccncc3)C2)cc1 (stereo not shown) [Example 61, 3-((1-benzylpyrrolidin-3-yl)oxy)-2,4′-bipyridine] | 89 | – | – |
| COc1ccc(S(=O)(=O)N2CCC(Oc3cccnc3-c3ccncc3)C2)cc1 (stereo not shown) [Example 64, 3-((1-((4-methoxyphenyl)sulfonyl)pyrrolidin-3-yl)oxy)-2,4′-bipyridine] | 92 | – | – |
| O=C(C1CC1)N1CCC(Oc2cccnc2-c2ccncc2)CC1 [Example 67, (4-(2,4′-bipyridin-3-yloxy)piperidin-1-yl)(cyclopropyl)methanone] | 80 | – | – |
| Cn1cc(S(=O)(=O)N2CCC(Oc3cccnc3-c3ccncc3)C2)cn1 (stereo not shown) [Example 71, 3-((1-((1-methyl-1H-pyrazol-4-yl)sulfonyl)pyrrolidin-3-yl)oxy)-2,4′-bipyridine] | 89 | 86 | – |
| COc1ccc(CC(=O)N2CCC(Oc3ccccc3-c3ccncn3)CC2)cc1 [Example 74, 2-(4-methoxyphenyl)-1-(4-(2-(pyrimidin-4-yl)phenoxy)piperidin-1-yl)ethanone] | 88 | – | – |
| Cn1cc(S(=O)(=O)N2CCC(Oc3cc(F)ccc3-c3ccncn3)C2)cn1 (stereo not shown) [Example 84, 4-(4-fluoro-2-((1-((1-methyl-1H-pyrazol-4-yl)sulfonyl)pyrrolidin-3-yl)oxy)phenyl)pyrimidine] | 87 | – | – |
| O=S(=O)(N1CCOCC1)N1CCC(Oc2cccnc2-c2ccncc2)C1 (stereo not shown) [Example 85, 3-((1-(morpholin-4-ylsulfonyl)pyrrolidin-3-yl)oxy)-2,4′-bipyridine] | 84 | – | – |
| CCS(=O)(=O)N1CCC(Oc2cc(F)ccc2-c2ccncc2)C1 (stereo not shown) [Example 88, 4-(2-((1-(ethylsulfonyl)pyrrolidin-3-yl)oxy)-4-fluorophenyl)pyridine] | 82 | – | – |
| O=S(=O)(c1ccc(F)cc1)N1CCC(Oc2nccnc2-c2ccncc2)C1 (stereo not shown) [Example 110, 2-((1-((4-fluorophenyl)sulfonyl)pyrrolidin-3-yl)oxy)-3-(pyridin-4-yl)pyrazine] | 89 | – | – |
| O=S(=O)(c1ccccc1)N1CCC(Oc2cccnc2-c2ccncc2)C1 (stereo not shown) [Example 120, 3-((1-(phenylsulfonyl)pyrrolidin-3-yl)oxy)-2,4′-bipyridine] | 94 | – | – |
| c1ccc(CN2CCC(Oc3cccnc3-c3ccncc3)CC2)nc1 [Example 124, 3-((1-(pyridin-2-ylmethyl)piperidin-4-yl)oxy)-2,4′-bipyridine] | 95 | – | – |
